Data published in article PMC6471485, “Selective Inhibitors of a Human Prolyl Hydroxylase (OGFOD1) Involved in Ribosomal Decoding” (Chemistry (Weinheim an Der Bergstrasse, Germany), 2019).
“And” between values parts separate entries of the source, which are not always exact repeats. Identical values can stand only once.

Legend:
[1] = target: T1, OGFOD1 (Homo sapiens, UniProt Q8N543); assay: OGFOD1 inhibition assay: hydroxylation of RPS23 51-70 peptide by MALDI-TOF MS; assay type: biochemical; conditions: IC50 against OGFOD1, 1 μM OGFOD1; minimum measurable IC50 0.5 μM; values for 24 and 25 regarded as preliminary
T1 sequence (Q8N543 1-542): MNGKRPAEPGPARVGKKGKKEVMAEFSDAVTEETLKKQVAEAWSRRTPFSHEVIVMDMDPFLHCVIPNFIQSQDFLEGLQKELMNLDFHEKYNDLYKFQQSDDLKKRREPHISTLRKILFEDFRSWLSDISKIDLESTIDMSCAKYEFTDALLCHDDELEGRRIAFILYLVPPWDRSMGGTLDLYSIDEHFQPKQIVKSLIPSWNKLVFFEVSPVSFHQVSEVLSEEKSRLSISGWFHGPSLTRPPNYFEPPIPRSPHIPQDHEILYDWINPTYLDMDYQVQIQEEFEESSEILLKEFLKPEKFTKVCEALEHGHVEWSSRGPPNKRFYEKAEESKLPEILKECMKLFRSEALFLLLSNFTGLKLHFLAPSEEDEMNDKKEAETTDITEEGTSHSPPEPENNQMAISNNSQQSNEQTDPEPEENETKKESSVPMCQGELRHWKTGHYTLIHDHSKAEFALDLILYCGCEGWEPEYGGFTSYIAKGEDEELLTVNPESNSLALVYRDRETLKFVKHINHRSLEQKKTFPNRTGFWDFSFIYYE
Procedure: OGFOD1 inhibition assays were performed by determining the extent of hydroxylation of a 20mer fragment of human ribosomal protein S23 (RPS23) containing residues 51-70 (H2N- […]
-CONH2) by matrix-assisted laser desorption/ionization time-of-flight mass spectrometry (MALDI-TOF MS) using a Waters Micromass MALDI micro MX mass spectrometer and MassLynx 4.1, as previously described.[7,8] The optimized hydroxylation assay involved incubation of OGFOD1 (1 µM) with inhibitor (1 % v/v in DMSO) in the presence of (NH4)2Fe(SO4)2 (50 µM), the disodium salt of 2-oxoglutarate (25 µM), […]
OGFOD1 was pre-incubated with inhibitor for 5 min before initiation of the reaction via the addition of the other reagents. Reactions were quenched with formic acid (1 % v/v) after 15 min. Samples were prepared for MALDI using α-cyano-4-hydrocinnamic acid (CHCA; prepared in 50 % acetonitrile) as a matrix. Dose-responses were assessed in 8-point triplicates, normalized to a no enzyme negative control and a no inhibitor positive control. Non-linear regression analysis was performed using Prism (GraphPad). […]

[2] = S9 liver microsome stability assay (Cyprotex); assay type: in vitro ADME; conditions: for microsomal CLint: S9 liver microsome assay, read-out: predicted intrinsic clearance; for clearance classification: low clearance: < 8.6 µL/min/mg protein
Procedure: supplemented with 80 µM Zn(II), 70 µM of inhibitor, all in 50 mM Tris-d11, pH 7.5, 10 % D2O, […]
Cell Culture and Immunoblotting
HeLa cells were cultured in DMEM media supplemented with 10 % fetal bovine serum, 4 mM L-glutamine, 100 U/mL penicillin, and 100 µg/mL streptomycin. Cells were treated with the indicated compounds, prepared in 1% DMSO, for 5 h. Following a PBS buffer rinse, cells were lysed in urea/SDS buffer supplemented with 1 mM dithiothreitol. Cell extracts were analyzed by SDS-PAGE, electroblotted onto PVDF membranes (Millipore) and probed with anti-HIF-1α antibody (clone 54, BD Transduction Laboratories) at 1:1000 dilution for 1 h at room temperature. The HRP-conjugated secondary antibody was then applied at room temperature for 1 h. Target proteins were detected with SuperSignal Chemiluminescent […]
ADMET in vitro Predictors
S9 liver microsome stability assays and MDCK-MDR1 efflux assays were carried out for CCT3 and CCT4 by Cyprotex (UK). Additional details are provided later in the Supporting […]
The solubility and metabolic stability of CCT3 and CCT4 was preliminarily evaluated using a S9 liver microsome assay (Cyprotex, UK). According to the assay, CCT3 and CCT4 had […]
respectively, and are thus classified as having low clearance (< 8.6 µL/min/mg protein).
The cell permeability of CCT3 and CCT4 were evaluated using an MDR1-MDCK in vitro […]
able to penetrate the blood-brain barrier. The permeability coefficients were determined to be

With `Cn1c(O)c(C(=O)CCc2ccccc2)c(=O)n(C)c1=O` [compound 26] the IC50 [1] was 700 nM and 730 nM and < 1000 nM, the microsomal CLint [2] was 4.76 µL/min/mg and the clearance classification ([2]; listed as CCT3) was “only low levels of clearance”.
For `Cn1c(O)c(C(=O)CCc2cccs2)c(=O)n(C)c1=O` [compound 42], the IC50 [1] was 690 nM and < 1000 nM, the microsomal CLint [2] was 7.72 µL/min/mg and the clearance classification ([2]; listed as CCT4) was “only low levels of clearance”.
